Laboratory results: ChEMBL document CHEMBL5325450, “Bisabolane-Type Sesquiterpenoids with a Tetrahydrofuran or Tetrahydropyran Ring from Vernonia solanifolia” (J Nat Prod, 2023)
The source made the active and inactive calls. No cut-off for these calls is given here.

How the values were obtained:
[1] = biological target: T1, Nuclear factor NF-kappa-B complex (Homo sapiens) (UniProt Q00653+P19838+Q04206); test: Inhibition of NFkappaB signaling pathway in LPS-induced human THP-1 cells assessed as reduction in IKKalpha/beta phosphorylation by Western blot analysis; type: cell-based
RAW264.7 [2] = test: Anti-inflammatory activity against mouse RAW264.7 cells assessed as inhibition of LPS-induced NO production at 80 uM pre-incubated for 1 hr followed by compound addition and measured after 18 hrs by Griess reagent based analysis; type: functional, cell-based; conditions: time 19.0 hrs
THP-1 = test: Anti-inflammatory activity against LPS-induced human THP-1 cells assessed as reduction in iNOS protein expression by Western blot analysis; type: functional, cell-based; conditions: dose 20-80 µM
[3] = biological target: T1, Nuclear factor NF-kappa-B complex (Homo sapiens); test: Inhibition of NFkappaB signaling pathway in LPS-induced human THP-1 cells assessed as reduction in p65 phosphorylation by Western blot analysis; type: cell-based
RAW264.7 [4] = test: Anti-inflammatory activity against mouse RAW264.7 cells assessed as reduction in LPS-induced NO production pre-incubated for 1 hr followed by compound addition and measured after 18 hrs by Griess reagent based analysis; type: functional, cell-based; conditions: dose 5-80 µM, time 19.0 hrs
[5] = biological target: T1, Nuclear factor NF-kappa-B complex (Homo sapiens); test: Inhibition of NFkappaB signaling pathway in LPS-induced human THP-1 cells assessed as reduction in IkappaBalpha phosphorylation by Western blot analysis; type: cell-based
RAW264.7 [6] = test: Cytotoxicity against mouse RAW264.7 cells assessed as reduction in cell viability upto 80 uM measured after 24 hrs by MTT assay; type: toxicity, cell-based; conditions: raw264.7, 24 h

T1 sequence (P19838 whole entry, looked up): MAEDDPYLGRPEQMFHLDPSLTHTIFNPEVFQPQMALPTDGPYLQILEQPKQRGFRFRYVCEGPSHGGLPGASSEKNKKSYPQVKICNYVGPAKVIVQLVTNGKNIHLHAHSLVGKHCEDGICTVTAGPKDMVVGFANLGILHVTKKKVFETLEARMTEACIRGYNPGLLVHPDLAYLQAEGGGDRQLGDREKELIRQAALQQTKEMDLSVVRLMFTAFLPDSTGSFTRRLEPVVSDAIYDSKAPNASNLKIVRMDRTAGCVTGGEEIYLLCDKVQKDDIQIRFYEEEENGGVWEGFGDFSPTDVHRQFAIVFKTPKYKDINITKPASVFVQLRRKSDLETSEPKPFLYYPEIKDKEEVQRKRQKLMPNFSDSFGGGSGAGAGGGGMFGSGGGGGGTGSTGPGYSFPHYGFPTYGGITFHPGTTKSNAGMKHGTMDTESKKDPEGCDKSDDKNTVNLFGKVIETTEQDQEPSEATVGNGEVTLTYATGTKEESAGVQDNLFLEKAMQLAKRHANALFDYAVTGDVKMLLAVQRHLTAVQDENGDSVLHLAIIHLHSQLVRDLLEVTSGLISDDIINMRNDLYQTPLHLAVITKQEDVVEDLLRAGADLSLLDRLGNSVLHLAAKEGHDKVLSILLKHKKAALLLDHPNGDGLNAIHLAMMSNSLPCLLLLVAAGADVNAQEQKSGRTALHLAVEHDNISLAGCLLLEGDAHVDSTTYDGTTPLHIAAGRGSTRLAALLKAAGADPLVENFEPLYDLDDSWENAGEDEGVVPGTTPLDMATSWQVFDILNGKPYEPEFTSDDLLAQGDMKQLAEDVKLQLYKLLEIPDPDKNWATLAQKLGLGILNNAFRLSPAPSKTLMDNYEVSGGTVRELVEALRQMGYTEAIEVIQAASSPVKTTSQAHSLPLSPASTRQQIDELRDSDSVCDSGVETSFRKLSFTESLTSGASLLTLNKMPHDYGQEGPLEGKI
T1 sequence (Q00653 whole entry, looked up): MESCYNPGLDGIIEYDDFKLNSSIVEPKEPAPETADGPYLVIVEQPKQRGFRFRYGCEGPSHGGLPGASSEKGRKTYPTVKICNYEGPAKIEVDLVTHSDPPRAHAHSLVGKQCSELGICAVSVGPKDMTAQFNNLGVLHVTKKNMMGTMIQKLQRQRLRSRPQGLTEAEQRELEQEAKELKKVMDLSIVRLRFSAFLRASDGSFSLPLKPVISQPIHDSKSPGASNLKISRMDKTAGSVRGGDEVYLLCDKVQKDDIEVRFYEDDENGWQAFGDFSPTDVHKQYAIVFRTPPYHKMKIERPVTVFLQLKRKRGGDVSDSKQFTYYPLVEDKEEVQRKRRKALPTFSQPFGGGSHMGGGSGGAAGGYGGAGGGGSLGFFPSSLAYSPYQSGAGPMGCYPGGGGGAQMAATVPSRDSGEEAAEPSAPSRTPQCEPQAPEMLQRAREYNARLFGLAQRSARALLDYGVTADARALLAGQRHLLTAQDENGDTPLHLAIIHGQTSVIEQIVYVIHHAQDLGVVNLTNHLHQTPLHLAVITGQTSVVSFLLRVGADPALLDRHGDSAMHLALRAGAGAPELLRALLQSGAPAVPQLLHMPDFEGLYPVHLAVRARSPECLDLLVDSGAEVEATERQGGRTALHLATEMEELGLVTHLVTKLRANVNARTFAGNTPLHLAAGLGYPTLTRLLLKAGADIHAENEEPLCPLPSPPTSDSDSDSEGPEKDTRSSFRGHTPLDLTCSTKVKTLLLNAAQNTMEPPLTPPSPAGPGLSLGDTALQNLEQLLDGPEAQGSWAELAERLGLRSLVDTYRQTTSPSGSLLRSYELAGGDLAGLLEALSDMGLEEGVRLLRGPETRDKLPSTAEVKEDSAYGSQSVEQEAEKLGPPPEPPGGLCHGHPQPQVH
T1 sequence (Q04206 whole entry, looked up): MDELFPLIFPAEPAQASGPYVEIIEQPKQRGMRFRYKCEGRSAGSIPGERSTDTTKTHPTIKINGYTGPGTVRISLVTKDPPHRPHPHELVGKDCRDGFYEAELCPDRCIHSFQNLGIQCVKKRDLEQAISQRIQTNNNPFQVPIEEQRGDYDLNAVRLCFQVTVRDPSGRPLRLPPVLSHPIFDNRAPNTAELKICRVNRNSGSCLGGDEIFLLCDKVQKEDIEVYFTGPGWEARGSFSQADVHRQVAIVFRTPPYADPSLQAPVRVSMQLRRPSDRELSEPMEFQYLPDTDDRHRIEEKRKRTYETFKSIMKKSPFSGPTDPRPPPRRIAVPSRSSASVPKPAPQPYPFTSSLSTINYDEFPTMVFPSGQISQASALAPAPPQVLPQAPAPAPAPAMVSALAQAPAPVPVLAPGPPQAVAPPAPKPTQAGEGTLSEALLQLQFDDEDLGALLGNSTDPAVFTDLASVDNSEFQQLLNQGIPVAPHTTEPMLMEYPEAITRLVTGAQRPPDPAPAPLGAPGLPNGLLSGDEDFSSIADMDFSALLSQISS

inhibition [1]: Active | inhibition [3]: Active | inhibition [5]: Active
Compound: C[C@](O)(CO)[C@@H]1CC[C@@](C)([C@@H]2CC=C(C(=O)O)CC2)O1
Activity (RAW264.7 [2]): Active | Activity (THP-1): Dose-Dependent Effect | Activity (RAW264.7 [4]): Dose-Dependent Effect | Activity (RAW264.7 [6]): Non-Toxic
